In PubChem BioAssay AID330 (DTP/NCI, 2004):
Values joined by “and” are separate entries in the source; they are usually repeats but may differ in a detail not shown here. Identical values can stand only once. Inconclusive results and toxic doses are left out.

System: P388 leukemia ip, CD2F1 mice, survival T/C
Assay: NCI In Vivo Anticancer Drug Screen. Data for tumor model P388 Leukemia (intraperitoneal) in CD2F1 (CDF1) mice
Settings: endpoint: median survival time, higher = longer survival
Summary of the method: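 Mice carrying the transplanted tumor received test compound or vehicle. Survival was recorded in each group, and the value is the treated-group measurement divided by that of the vehicle-treated control group.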

[1] = dose: 60.0 mg/kg/injection, schedule: Q01DX005 (ip), vehicle: saline with Tween-80
[2] = dose: 120.0 mg/kg/injection, schedule: Q01DX005 (ip), vehicle: saline with Tween-80
[3] = dose: 240.0 mg/kg/injection, schedule: Q01DX005 (ip), vehicle: saline with Tween-80
[4] = dose: 50.0 mg/kg/injection, schedule: Q01DX009 (ip), vehicle: saline with Tween-80
[5] = dose: 50.0 mg/kg/injection, schedule: Q01DX009 (ip), vehicle: saline
[6] = dose: 100.0 mg/kg/injection, schedule: Q01DX009 (ip), vehicle: saline
[7] = dose: 200.0 mg/kg/injection, schedule: Q01DX009 (ip), vehicle: saline
[8] = dose: 50.0 mg/kg/injection, schedule: Q01DX005 (ip), vehicle: saline with Tween-80
[9] = dose: 100.0 mg/kg/injection, schedule: Q01DX005 (ip), vehicle: saline with Tween-80
[10] = dose: 200.0 mg/kg/injection, schedule: Q01DX005 (ip), vehicle: saline with Tween-80
[11] = dose: 100.0 mg/kg/injection, schedule: Q04DX002 (ip), vehicle: saline with Tween-80
[12] = dose: 200.0 mg/kg/injection, schedule: Q04DX002 (ip), vehicle: saline with Tween-80
[13] = dose: 25.0 mg/kg/injection, schedule: Q01DX009 (ip), vehicle: saline with Tween-80
[14] = dose: 100.0 mg/kg/injection, schedule: Q01DX009 (ip), vehicle: saline with Tween-80
[15] = dose: 12.5 mg/kg/injection, schedule: Q01DX009 (ip), vehicle: saline with Tween-80
[16] = dose: 200.0 mg/kg/injection, schedule: Q01DX009 (ip), vehicle: saline with Tween-80
[17] = dose: 50.0 mg/kg/injection, schedule: Q01DX009 (ip), vehicle: Klucel (hydroxypropylcellulose) (HPC)
[18] = dose: 100.0 mg/kg/injection, schedule: Q01DX009 (ip), vehicle: Klucel (hydroxypropylcellulose) (HPC)
[19] = dose: 15.0 mg/kg/injection, schedule: Q01DX005 (ip), vehicle: saline with Tween-80
[20] = dose: 30.0 mg/kg/injection, schedule: Q01DX005 (ip), vehicle: saline with Tween-80
[21] = dose: 100.0 mg/kg/injection, schedule: Q01DX001 (ip), vehicle: saline with Tween-80
[22] = dose: 200.0 mg/kg/injection, schedule: Q01DX001 (ip), vehicle: saline with Tween-80
[23] = dose: 400.0 mg/kg/injection, schedule: Q01DX001 (ip), vehicle: saline with Tween-80

SMILES: C[Si](C)(C)C#CC[Si](C)(C)C
- T/C [1]: 97 % of control
- T/C [2]: 100 % of control
- T/C [3]: 106 % of control

SMILES: O=C(Nc1ccccc1)Oc1cccc(/C=N/Sc2ccccc2)c1
- T/C [4]: 98 % of control

SMILES: Cc1ccc(NC(=O)N2CCCCC2)cc1NC(=O)N1CCCCC1
- T/C [1]: 94 % of control
- T/C [2]: 91 % of control
- T/C [3]: 88 % of control

SMILES: CCc1nc(N)nc(N)c1-c1ccc(NC)c(N)c1
- T/C (dose: 100.0 mg/kg/injection, schedule: Q04DX002 (ip), vehicle: Klucel (hydroxypropylcellulose) (HPC)): 96 % of control
- T/C (dose: 200.0 mg/kg/injection, schedule: Q04DX002 (ip), vehicle: Klucel (hydroxypropylcellulose) (HPC)): 105 % of control

SMILES: CCOC(=O)C(Cc1c[nH]c2ccccc12)NCCNc1ccccc1 (configuration not stated)
- T/C [5]: 91 % of control
- T/C [6]: 91 % of control
- T/C [7]: 99 % of control

SMILES: CCc1ccc2c(-c3ccccc3)c3c(-c4ccccc4)c4ccccc4c(-c4ccccc4)c3c(-c3ccccc3)c2c1
- T/C (dose: 12.5 mg/kg/injection, schedule: Q01DX005 (ip), vehicle: saline with Tween-80): 99 % of control
- T/C (dose: 25.0 mg/kg/injection, schedule: Q01DX005 (ip), vehicle: saline with Tween-80): 91 % of control
- T/C [8]: 98 % of control and 88 % of control

SMILES: C=Cc1ccc(NC(=O)CC2SC(=O)NC2=O)cc1 (configuration not stated)
- T/C [8]: 103 % of control
- T/C [9]: 97 % of control
- T/C [10]: 103 % of control

SMILES: O=C(O)c1c[nH]c2cc(OCc3ccc4ccccc4c3)ccc2c1=O
- T/C (dose: 100.0 mg/kg/injection, schedule: Q04DX003 (ip), vehicle: saline): 90 % of control
- T/C (dose: 200.0 mg/kg/injection, schedule: Q04DX003 (ip), vehicle: saline): 97 % of control
- T/C (dose: 400.0 mg/kg/injection, schedule: Q04DX003 (ip), vehicle: saline): 87 % of control

SMILES: CC(=O)OC1CC(OC(C)=O)C2(C)CC3=C(O)C(=O)OC3CC(C)C12 (configuration not stated)
- T/C [11]: 97 % of control
- T/C [12]: 101 % of control

SMILES: Cc1cc(Cl)ccc1N=Cc1cccs1
- T/C [5]: 90 % of control
- T/C [6]: 90 % of control
- T/C [7]: 89 % of control

SMILES: CCCNc1nc2c(c(=O)n1-c1ccccc1)C=C(C(=O)OC)CCN2S(=O)(=O)c1ccc(C)cc1
- T/C [1]: 108 % of control
- T/C [2]: 101 % of control
- T/C [3]: 105 % of control

SMILES: Nc1nc(N)nc(-c2cccs2)n1
- T/C [13]: 92 % of control
- T/C [4]: 101 % of control
- T/C (dose: 50.0 mg/kg/injection, schedule: Q04DX002 (ip), vehicle: saline with Tween-80): 92 % of control
- T/C [14]: 100 % of control
- T/C [11]: 90 % of control
- T/C [12]: 106 % of control

SMILES: COc1cccc(-n2cc[n+](C)c2/C=N/O)c1
- T/C [13]: 105 % of control
- T/C [4]: 108 % of control

SMILES: O=C(/C=C/c1ccc(OCc2ccccc2)cc1)c1ccc(C(F)(F)F)cc1
- T/C [15]: 94 % of control
- T/C [13]: 100 % of control
- T/C [4]: 90 % of control and 93 % of control
- T/C [16]: 95 % of control

SMILES: CCOC(=O)c1ccc(NC(=O)CCOc2ccccc2)cc1
- T/C (dose: 60.0 mg/kg/injection, schedule: Q01DX005 (ip), vehicle: Klucel (hydroxypropylcellulose) (HPC)): 88 % of control
- T/C (dose: 120.0 mg/kg/injection, schedule: Q01DX005 (ip), vehicle: Klucel (hydroxypropylcellulose) (HPC)): 88 % of control
- T/C (dose: 240.0 mg/kg/injection, schedule: Q01DX005 (ip), vehicle: Klucel (hydroxypropylcellulose) (HPC)): 87 % of control

SMILES: CCCCCCCCCCCCCCCC(=O)N(CCC#N)CCC#N
- T/C [14]: 185 % of control
- T/C [16]: 100 % of control

SMILES: O=C(O)CCNC1=CC(=O)c2ccccc2C1=O
- T/C [17]: 102 % of control
- T/C [18]: 110 % of control

SMILES: C/C(=N\N=N\c1ccc(C)s1)c1ccccc1
- T/C (dose: 50.0 mg/kg/injection, schedule: Q01DX005 (ip), vehicle: Klucel + Tween-80): 105 % of control
- T/C (dose: 100.0 mg/kg/injection, schedule: Q01DX005 (ip), vehicle: Klucel + Tween-80): 105 % of control
- T/C (dose: 200.0 mg/kg/injection, schedule: Q01DX005 (ip), vehicle: Klucel + Tween-80): 97 % of control

SMILES: CCN(CC)CCOc1ccccc1/C=C/c1noc2ccccc12
- T/C (dose: 15.0 mg/kg/injection, schedule: Q01DX005 (ip), vehicle: saline): 94 % of control
- T/C (dose: 30.0 mg/kg/injection, schedule: Q01DX005 (ip), vehicle: saline): 91 % of control
- T/C (dose: 60.0 mg/kg/injection, schedule: Q01DX005 (ip), vehicle: saline): 98 % of control

SMILES: CC(C)C(=O)NCCCCCN1CCCCC1
- T/C (dose: 50.0 mg/kg/injection, schedule: Q01DX005 (ip), vehicle: saline): 106 % of control
- T/C (dose: 100.0 mg/kg/injection, schedule: Q01DX005 (ip), vehicle: saline): 99 % of control
- T/C (dose: 200.0 mg/kg/injection, schedule: Q01DX005 (ip), vehicle: saline): 99 % of control

SMILES: Cc1ccc2c(c1)NC(=S)N=S2(C)=O (configuration not stated)
- T/C [4]: 95 % of control
- T/C [14]: 93 % of control
- T/C [16]: 102 % of control

SMILES: CCC1C2Cc3ccc(O)cc3C1(CC)CCN2Cc1ccoc1 (configuration not stated)
- T/C [4]: 96 % of control
- T/C [14]: 88 % of control
- T/C [16]: 91 % of control

SMILES: CCN(CC)Cc1cc(C)c(O)c(N=Nc2cccc3ccccc23)c1C
- T/C [11]: 86 % of control
- T/C [12]: 91 % of control
- T/C (dose: 400.0 mg/kg/injection, schedule: Q04DX002 (ip), vehicle: saline with Tween-80): 109 % of control

SMILES: CC1(c2ccccc2)OC1(C)c1ccccc1 (configuration not stated)
- T/C [17]: 103 % of control
- T/C [18]: 103 % of control
- T/C (dose: 200.0 mg/kg/injection, schedule: Q01DX009 (ip), vehicle: Klucel (hydroxypropylcellulose) (HPC)): 103 % of control

SMILES: CC(C)C1C(=O)NC(c2ccc(N)cc2)c2ccccc21 (configuration not stated)
- T/C [15]: 104 % of control
- T/C [13]: 94 % of control
- T/C [4]: 93 % of control
- T/C [5]: 105 % of control
- T/C [7]: 90 % of control

SMILES: N#Cc1c2c(c(N3CCCCC3)n3c1nc1ccccc13)CCC2
- T/C [19]: 98 % of control
- T/C [20]: 102 % of control
- T/C [1]: 91 % of control and 95 % of control

SMILES: O=C(O)CCc1cccnc1
- T/C (dose: 266.0 mg/kg/injection, schedule: Q01DX009 (ip), vehicle: saline with Tween-80): 105 % of control
- T/C (dose: 400.0 mg/kg/injection, schedule: Q01DX009 (ip), vehicle: saline with Tween-80): 115 % of control

SMILES: CC(C)Cc1cc(-c2cc(CC(C)C)[nH]n2)n[nH]1
- T/C [1]: 106 % of control
- T/C [2]: 95 % of control
- T/C [3]: 100 % of control

SMILES: O=C1C(c2[nH]c3cccc(Cl)c3c2O)=Nc2cccc(Cl)c21
- T/C [8]: 100 % of control
- T/C [9]: 104 % of control
- T/C [10]: 109 % of control

SMILES: CN(C)CC1=c2ccccc2=N/C1=C\c1ccc(N(C)C)cc1
- T/C [21]: 89 % of control
- T/C [22]: 88 % of control
- T/C [23]: 92 % of control

SMILES: CN(Cc1ccccc1)C(=O)C(=O)c1c[nH]c2ccccc12
- T/C [14]: 86 % of control
- T/C [16]: 90 % of control

SMILES: O=[N+]([O-])c1ccc(N/N=C(\CBr)c2ccccc2)c([N+](=O)[O-])c1
- T/C [21]: 91 % of control
- T/C [22]: 87 % of control
- T/C [23]: 87 % of control

SMILES: COc1cc(C2c3c(oc4ccccc4c3=O)Oc3oc4ccccc4c(=O)c32)cc(OC)c1O
- T/C [19]: 92 % of control
- T/C [20]: 96 % of control
- T/C [1]: 92 % of control
- T/C [2]: 95 % of control
- T/C [3]: 98 % of control

SMILES: O=[N+]([O-])c1ccc(OP(=O)(Oc2ccc([N+](=O)[O-])cc2)N(CCCl)CCCl)cc1
- T/C (dose: 18.8 mg/kg/injection, schedule: Q01DX001 (ip), vehicle: other): 108 % of control
- T/C (dose: 37.5 mg/kg/injection, schedule: Q01DX001 (ip), vehicle: other): 112 % of control
- T/C (dose: 75.0 mg/kg/injection, schedule: Q01DX001 (ip), vehicle: other): 113 % of control
- T/C (dose: 150.0 mg/kg/injection, schedule: Q01DX001 (ip), vehicle: other): 115 % of control
- T/C (dose: 300.0 mg/kg/injection, schedule: Q01DX001 (ip), vehicle: other): 99 % of control

SMILES: C=C(C)C(O)C(O)c1cc2ccc(=O)oc2cc1OC (configuration not stated)
- T/C [15]: 99 % of control
- T/C [13]: 99 % of control
- T/C [4]: 99 % of control
- T/C [14]: 107 % of control
